The subject of assay [1] is human peripheral blood mononuclear cells. Briefly: Proliferation inhibition of peripheral blood mononuclear cells (flow cytometry). The format is cell-based. The settings on record: PBMC, PHA-M 5 μg/mL stimulation, 48 hours. How it is done: Flow cytometry was used to detect cell proliferation of human peripheral blood mononuclear cells.
• Cell complete medium: 445 mL of RPMI1640 cell culture+50 mL of fetal bovine serum+5 mL of double antibody • Buffer 1: 9.9 mL of phosphate buffer+0.1 mL of 10% bovine serum protein • Buffer 2: 10 mL of fetal bovine serum+490 mL of phosphate buffer 3.2 Cell Thawing • 3.2.1 20 mL of cell complete medium was added to a 50 mL of centrifuge tube and pre-heated in a 37° C. water bath for 5 minutes; • 3.2.2 the cell cryotubes were removed from the liquid nitrogen storage tank and placed on dry ice for 5-10 minutes to allow the liquid nitrogen to evaporate fully; • 3.2.3 the cell cryotubes were clamped with forceps and placed in the water bath, and shaken gently to thaw the frozen cells quickly; • 3.2.4 the thawed cells were transferred to the pre-heated cell complete medium with a pipette, centrifuged at 350 g for 5 min, then the supernatant was discarded, and the cells was resuspended by adding 10 mL of phosphate buffer; • 3.2.5 counting by cell counter, and cell viability and cell count were recorded. 3.3 Cell Labeling • 3.3.1 Cell proliferation labeling solution (CellTrace™ Violet, 1:1000 dilution) was prepared • 3.3.2 the above mixture was centrifuged at 350 g for 5 minutes, and the supernatant was discarded, then the cells (20×10^6/mL) were resuspended by adding Buffer 1, and the resuspended cells were gently blown by pipette, and an equal volume of cell proliferation labeling solution (prepared in 3.3.1) was added, and gently blown well by pipette; • 3.3.3 incubating in a 5% CO2, 37° C. cell incubator for 18 minutes; • 3.3.4 the 5-fold volume of cell complete medium was added and leaved at room temperature for 5 minutes to terminate the staining reaction; • 3.3.5 the above mixture was centrifuged at 350 g for 5 minutes, and the supernatant was discarded, then the cells were resuspended by adding 10 mL of cell complete medium, counted by cell counter, and cell viability and cell count were recorded; • 3.3.6 the above mixture was centrifuged at 350 g for 5 minutes, and the supernatant was discarded, then the corresponding volume of cell complete medium was added according to the cell counting results, and the density of the resuspended cells was 2×10^6/mL and was to be used. 3.4 Cell Proliferation Stimulation • 3.4.1 50 μL/well prepared cell suspension (1×10^5 cells/well), 50 μL of 4×PHA-M (the final concentration is 5 μg/mL), 50 μL of 4×test compound, 50 μL of cell complete medium were added to the wells of 96-well cell culture plate, and the corresponding control group was set up; (total volume of the reaction system is 200 μL) • 3.4.2 the cell culture plate was placed and incubated in a 5% CO2, 37° C. cell incubator for 48 hours. 3.5 Cell Proliferation Detection • 3.5.1 the above mixture was centrifuged at 350 g for 5 minutes and the supernatant was transferred to a new cell culture plate and stored at −80° C.; • 3.5.2 200 μL of Buffer 2 was add to the wells of the culture plate, and the above mixture was centrifuged at 350 g and the supernatant was discarded; • 3.5.3 cell dead or living staining solution (7-AAD, 1:100 dilution) was prepared with Buffer 2; • 3.5.4 100 μL/well of dead or living staining solution was added, and gently blown and mixed well by pipette, and stained at room temperature for 10 min; • 3.5.5 cell proliferation was detected by flow cytometry analyzer and analyzed by Flowjo software.
(In general: Flow cytometry measures light scatter and fluorescence of single cells or particles in a stream.)

The target of assay [2] is T1, ALK(h) (Homo sapiens, UniProt Q9UM73).
T1 construct: purchased Eurofins (KinaseProfiler platform)
Briefly: Eurofins KinaseProfiler kinase selectivity. The settings on record: compound at 1 μM; ATP 200 μM; read-out: Residual enzyme activity. It is filed as biochemical. How it is done:
(§1) This experiment aims to study the activity and selectivity of the compounds towards kinases selected from the Eurofins KinaseProfiler™ platform. The compounds against each selected kinase were tested using the KinaseProfiler™ experimental procedure of Eurofins standard, which follows the relevant standard operating procedures. Protein kinases (except ATM(h) and DNA-PK(h)) were tested by […], while lipid kinases, ATM(h), ATR/ATRIP(h) and DNA-PK(h) were tested by HRTF®.
(§2) Compound powders were prepared into 10 mM mother liquor through 100% DMSO solution and then diluted to 50× liquid.
(§3) An appropriate amount of 50× storage solution of the test compound was taken into the test wells, and then the kinase and substrate were added and mixed well. A certain concentration of ATP was added to start the reaction.
(§4) Data were processed using custom in-house analysis software.
(§5) The kinase off-target study in vitro of compound 5 of the present disclosure was carried out to evaluate the inhibitory activity against 15 common kinases at a concentration of 1 μM of the drug, and the results are as shown in Table 6.

The target of assay [3] is T2, Abl(h) (Homo sapiens, UniProt P00519).
T2 construct: purchased Eurofins (KinaseProfiler platform)
The experiment in a line: Eurofins KinaseProfiler kinase selectivity. The format is biochemical. The following applies: compound at 1 μM; ATP 45 μM; read-out: Residual enzyme activity. The protocol: as §1, §2, §3, §4, §5

Assay [4] deals with T3, CDK1/cyclinB(h) (Homo sapiens, UniProt P06493).
T3 construct: purchased Eurofins (KinaseProfiler platform)
T3 sequence (P06493 whole entry): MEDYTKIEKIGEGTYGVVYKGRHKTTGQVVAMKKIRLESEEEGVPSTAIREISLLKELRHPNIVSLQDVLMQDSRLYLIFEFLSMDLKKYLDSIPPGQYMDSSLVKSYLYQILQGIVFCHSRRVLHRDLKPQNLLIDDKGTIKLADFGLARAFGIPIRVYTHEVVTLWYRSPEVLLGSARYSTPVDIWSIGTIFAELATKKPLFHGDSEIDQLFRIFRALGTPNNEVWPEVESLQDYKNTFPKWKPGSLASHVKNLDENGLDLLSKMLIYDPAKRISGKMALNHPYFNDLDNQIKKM
T3 sequence (P14635 whole entry partner): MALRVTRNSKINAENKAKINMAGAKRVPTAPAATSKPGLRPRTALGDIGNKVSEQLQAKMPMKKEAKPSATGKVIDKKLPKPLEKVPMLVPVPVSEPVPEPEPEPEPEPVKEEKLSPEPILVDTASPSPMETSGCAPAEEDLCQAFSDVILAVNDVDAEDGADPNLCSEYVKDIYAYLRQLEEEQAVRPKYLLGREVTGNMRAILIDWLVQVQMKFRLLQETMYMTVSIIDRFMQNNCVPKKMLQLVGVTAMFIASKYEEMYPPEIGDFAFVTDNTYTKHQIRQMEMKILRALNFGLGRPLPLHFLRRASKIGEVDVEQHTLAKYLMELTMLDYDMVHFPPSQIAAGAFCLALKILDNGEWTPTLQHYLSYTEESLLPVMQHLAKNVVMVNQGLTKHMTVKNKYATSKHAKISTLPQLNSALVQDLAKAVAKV
The experiment in a line: Eurofins KinaseProfiler kinase selectivity. The format is biochemical. The following applies: compound at 1 μM; ATP 45 μM; read-out: Residual enzyme activity. How it is done:
as §1, §2, §3, §4, §5

Assay [5] has as its target T4, CDK2/cyclinA(h) (Homo sapiens, UniProt P24941).
T4 construct: purchased Eurofins (KinaseProfiler platform)
The experiment in a line: Eurofins KinaseProfiler kinase selectivity. The format is biochemical. The settings on record: compound at 1 μM; ATP 45 μM; read-out: Residual enzyme activity. The protocol: as §1, §2, §3, §4, §5

Assay [6] deals with T5, CDK9/cyclin T1(h) (Homo sapiens, UniProt P50750).
T5 construct: purchased Eurofins (KinaseProfiler platform)
T5 sequence (P50750 whole entry): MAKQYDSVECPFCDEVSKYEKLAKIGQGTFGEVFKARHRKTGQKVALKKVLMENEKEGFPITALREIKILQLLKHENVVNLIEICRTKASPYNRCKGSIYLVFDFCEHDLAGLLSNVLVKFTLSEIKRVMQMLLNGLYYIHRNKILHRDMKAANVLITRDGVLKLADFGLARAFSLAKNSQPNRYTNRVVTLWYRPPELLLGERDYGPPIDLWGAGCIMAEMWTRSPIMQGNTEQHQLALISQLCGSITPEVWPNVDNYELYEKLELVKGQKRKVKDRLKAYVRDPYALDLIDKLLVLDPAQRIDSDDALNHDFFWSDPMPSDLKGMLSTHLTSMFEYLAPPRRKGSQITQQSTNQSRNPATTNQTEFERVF
T5 sequence (O60563 whole entry partner): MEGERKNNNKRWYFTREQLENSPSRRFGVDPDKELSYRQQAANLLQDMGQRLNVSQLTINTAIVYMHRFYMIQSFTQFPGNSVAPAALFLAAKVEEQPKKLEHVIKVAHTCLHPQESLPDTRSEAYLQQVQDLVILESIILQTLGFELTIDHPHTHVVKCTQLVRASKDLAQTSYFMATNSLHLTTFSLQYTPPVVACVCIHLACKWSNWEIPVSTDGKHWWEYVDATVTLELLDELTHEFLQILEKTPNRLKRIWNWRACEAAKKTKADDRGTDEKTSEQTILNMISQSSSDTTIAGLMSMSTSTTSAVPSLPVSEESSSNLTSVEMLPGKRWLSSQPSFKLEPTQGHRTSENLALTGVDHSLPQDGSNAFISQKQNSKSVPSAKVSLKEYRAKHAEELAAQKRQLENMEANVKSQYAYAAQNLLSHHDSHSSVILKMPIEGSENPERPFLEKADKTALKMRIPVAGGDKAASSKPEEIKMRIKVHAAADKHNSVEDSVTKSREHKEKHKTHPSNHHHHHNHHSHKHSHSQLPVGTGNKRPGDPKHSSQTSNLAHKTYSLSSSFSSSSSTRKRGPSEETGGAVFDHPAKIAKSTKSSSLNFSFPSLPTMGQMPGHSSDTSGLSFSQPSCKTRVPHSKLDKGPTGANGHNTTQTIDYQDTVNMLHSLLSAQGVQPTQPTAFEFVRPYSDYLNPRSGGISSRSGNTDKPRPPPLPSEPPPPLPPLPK
Briefly: Eurofins KinaseProfiler kinase selectivity. The following applies: compound at 1 μM; ATP 45 μM; read-out: Residual enzyme activity. It is filed as biochemical. The protocol: as §1, §2, §3, §4, §5

Assay [7] deals with T6, Flt3(h) (Homo sapiens, UniProt P36888).
T6 construct: purchased Eurofins (KinaseProfiler platform)
T6 sequence (P36888 27-993): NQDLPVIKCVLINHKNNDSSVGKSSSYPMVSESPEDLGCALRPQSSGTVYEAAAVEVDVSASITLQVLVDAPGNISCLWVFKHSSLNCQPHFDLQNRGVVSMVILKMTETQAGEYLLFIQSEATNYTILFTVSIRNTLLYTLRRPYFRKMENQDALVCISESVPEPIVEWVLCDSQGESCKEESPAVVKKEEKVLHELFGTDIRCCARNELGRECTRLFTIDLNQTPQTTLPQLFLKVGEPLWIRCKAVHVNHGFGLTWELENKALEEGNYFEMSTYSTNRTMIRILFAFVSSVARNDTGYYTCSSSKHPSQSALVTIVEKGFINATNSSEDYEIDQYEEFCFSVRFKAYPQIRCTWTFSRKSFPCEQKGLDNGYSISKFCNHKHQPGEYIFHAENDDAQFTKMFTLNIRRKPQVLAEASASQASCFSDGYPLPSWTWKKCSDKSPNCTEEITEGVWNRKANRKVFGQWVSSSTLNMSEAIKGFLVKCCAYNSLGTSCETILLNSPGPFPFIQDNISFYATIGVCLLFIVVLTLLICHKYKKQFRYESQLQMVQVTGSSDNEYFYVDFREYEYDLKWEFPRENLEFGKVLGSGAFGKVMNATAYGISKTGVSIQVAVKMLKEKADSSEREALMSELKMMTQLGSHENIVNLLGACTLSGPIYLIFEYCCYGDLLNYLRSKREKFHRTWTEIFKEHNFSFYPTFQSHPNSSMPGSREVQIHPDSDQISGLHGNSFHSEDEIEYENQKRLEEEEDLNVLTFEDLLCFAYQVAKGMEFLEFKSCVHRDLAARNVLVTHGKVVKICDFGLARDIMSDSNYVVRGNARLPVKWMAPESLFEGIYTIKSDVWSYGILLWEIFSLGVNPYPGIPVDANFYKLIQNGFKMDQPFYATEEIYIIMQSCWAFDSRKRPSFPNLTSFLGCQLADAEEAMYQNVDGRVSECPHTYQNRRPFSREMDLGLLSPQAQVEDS
The experiment in a line: Eurofins KinaseProfiler kinase selectivity. It is filed as biochemical. The settings on record: compound at 1 μM; ATP 200 μM; read-out: Residual enzyme activity. How it is done:
as §1, §2, §3, §4, §5

The target in assay [8] is T7, Fyn(h) (Homo sapiens, UniProt P06241).
T7 construct: purchased Eurofins (KinaseProfiler platform)
T7 sequence (P06241 whole entry): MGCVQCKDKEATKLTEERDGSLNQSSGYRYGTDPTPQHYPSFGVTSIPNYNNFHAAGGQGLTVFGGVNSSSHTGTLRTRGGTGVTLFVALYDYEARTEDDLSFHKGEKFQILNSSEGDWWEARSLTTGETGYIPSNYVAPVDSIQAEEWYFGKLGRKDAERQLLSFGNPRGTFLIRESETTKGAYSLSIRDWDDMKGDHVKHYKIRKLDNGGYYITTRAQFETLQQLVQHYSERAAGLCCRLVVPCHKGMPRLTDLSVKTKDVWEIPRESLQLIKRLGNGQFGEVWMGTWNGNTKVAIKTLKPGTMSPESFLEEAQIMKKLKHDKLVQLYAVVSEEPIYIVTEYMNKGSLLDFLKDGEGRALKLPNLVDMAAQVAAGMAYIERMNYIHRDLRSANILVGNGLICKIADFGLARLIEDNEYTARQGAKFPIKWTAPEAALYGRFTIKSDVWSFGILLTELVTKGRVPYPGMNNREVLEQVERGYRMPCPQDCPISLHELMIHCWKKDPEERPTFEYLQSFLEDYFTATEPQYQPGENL
Briefly: Eurofins KinaseProfiler kinase selectivity. The following applies: compound at 1 μM; ATP 70 μM; read-out: Residual enzyme activity. The format is biochemical. The protocol: as §1, §2, §3, §4, §5

In assay [9] the target is T8, GSK3β(h) (Homo sapiens, UniProt P49841).
T8 construct: purchased Eurofins (KinaseProfiler platform)
T8 sequence (P49841 whole entry): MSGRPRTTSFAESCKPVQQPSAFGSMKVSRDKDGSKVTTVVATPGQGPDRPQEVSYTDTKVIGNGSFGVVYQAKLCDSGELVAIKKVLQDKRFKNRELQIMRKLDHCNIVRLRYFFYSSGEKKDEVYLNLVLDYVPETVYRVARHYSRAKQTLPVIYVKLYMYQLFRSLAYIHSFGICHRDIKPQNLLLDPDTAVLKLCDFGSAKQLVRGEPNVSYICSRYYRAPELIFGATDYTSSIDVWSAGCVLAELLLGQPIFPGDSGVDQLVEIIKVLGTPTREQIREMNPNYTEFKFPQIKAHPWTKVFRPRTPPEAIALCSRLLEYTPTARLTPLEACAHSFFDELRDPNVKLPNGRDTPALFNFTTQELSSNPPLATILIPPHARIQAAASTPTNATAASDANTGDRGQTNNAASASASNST
Briefly: Eurofins KinaseProfiler kinase selectivity. The following applies: compound at 1 μM; ATP 15 μM; read-out: Residual enzyme activity. The format is biochemical. How it is done: as §1, §2, §3, §4, §5

The target of assay [10] is T9, JAK2(h) (Homo sapiens, UniProt O60674).
T9 construct: purchased Eurofins (KinaseProfiler platform)
Briefly: Eurofins KinaseProfiler kinase selectivity. The following applies: compound at 1 μM; ATP 45 μM; read-out: Residual enzyme activity. The format is biochemical. How it is done:
as §1, §2, §3, §4, §5

Assay [11] concerns the target T10, KDR(h) (Homo sapiens, UniProt P35968).
T10 construct: purchased Eurofins (KinaseProfiler platform)
The experiment in a line: Eurofins KinaseProfiler kinase selectivity. The format is biochemical. The following applies: compound at 1 μM; ATP 90 μM; read-out: Residual enzyme activity. How it is done: as §1, §2, §3, §4, §5

Assay [12] has as its target T11, LOK(h) (Homo sapiens, UniProt O94804).
T11 construct: purchased Eurofins (KinaseProfiler platform)
Briefly: Eurofins KinaseProfiler kinase selectivity. The format is biochemical. The following applies: compound at 1 μM; ATP 120 μM; read-out: Residual enzyme activity. The protocol: as §1, §2, §3, §4, §5

For assay [13], the target named is T12, MLK1(h) (Homo sapiens, UniProt P80192).
T12 construct: purchased Eurofins (KinaseProfiler platform)
Briefly: Eurofins KinaseProfiler kinase selectivity. It is filed as biochemical. The following applies: compound at 1 μM; ATP 45 μM; read-out: Residual enzyme activity. How it is done: as §1, §2, §3, §4, §5

The target in assay [14] is T13, MST1(h) (Homo sapiens, UniProt Q13043).
T13 construct: purchased Eurofins (KinaseProfiler platform)
T13 sequence (Q13043 whole entry): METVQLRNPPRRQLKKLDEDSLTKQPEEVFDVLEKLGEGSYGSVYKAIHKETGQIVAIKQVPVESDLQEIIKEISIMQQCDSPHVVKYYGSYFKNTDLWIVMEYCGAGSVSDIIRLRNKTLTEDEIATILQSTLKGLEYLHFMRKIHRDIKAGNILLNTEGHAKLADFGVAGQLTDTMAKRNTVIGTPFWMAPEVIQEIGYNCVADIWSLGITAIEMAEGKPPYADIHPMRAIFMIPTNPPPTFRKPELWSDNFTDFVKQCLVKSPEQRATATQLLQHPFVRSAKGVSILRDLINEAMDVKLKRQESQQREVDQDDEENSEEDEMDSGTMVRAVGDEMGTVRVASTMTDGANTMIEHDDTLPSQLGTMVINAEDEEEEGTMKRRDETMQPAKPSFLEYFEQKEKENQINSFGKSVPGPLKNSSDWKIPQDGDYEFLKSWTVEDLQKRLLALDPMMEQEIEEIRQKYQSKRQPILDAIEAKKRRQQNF
The experiment in a line: Eurofins KinaseProfiler kinase selectivity. The settings on record: compound at 1 μM; ATP 90 μM; read-out: Residual enzyme activity. The format is biochemical. The protocol: as §1, §2, §3, §4, §5

Assay [15] has as its target T14, Rsk1(h) (Homo sapiens, UniProt Q15418).
T14 construct: purchased Eurofins (KinaseProfiler platform)
The experiment in a line: Eurofins KinaseProfiler kinase selectivity. It is filed as biochemical. The following applies: compound at 1 μM; ATP 45 μM; read-out: Residual enzyme activity. How it is done:
as §1, §2, §3, §4, §5

In assay [16] the target is T15, TNIK(h) (Homo sapiens, UniProt Q9UKE5).
T15 construct: purchased Eurofins (KinaseProfiler platform)
The experiment in a line: Eurofins KinaseProfiler kinase selectivity. It is filed as biochemical. The following applies: compound at 1 μM; ATP 70 μM; read-out: Residual enzyme activity. How it is done:
as §1, §2, §3, §4, §5

T14 sequence (Q15418 whole entry): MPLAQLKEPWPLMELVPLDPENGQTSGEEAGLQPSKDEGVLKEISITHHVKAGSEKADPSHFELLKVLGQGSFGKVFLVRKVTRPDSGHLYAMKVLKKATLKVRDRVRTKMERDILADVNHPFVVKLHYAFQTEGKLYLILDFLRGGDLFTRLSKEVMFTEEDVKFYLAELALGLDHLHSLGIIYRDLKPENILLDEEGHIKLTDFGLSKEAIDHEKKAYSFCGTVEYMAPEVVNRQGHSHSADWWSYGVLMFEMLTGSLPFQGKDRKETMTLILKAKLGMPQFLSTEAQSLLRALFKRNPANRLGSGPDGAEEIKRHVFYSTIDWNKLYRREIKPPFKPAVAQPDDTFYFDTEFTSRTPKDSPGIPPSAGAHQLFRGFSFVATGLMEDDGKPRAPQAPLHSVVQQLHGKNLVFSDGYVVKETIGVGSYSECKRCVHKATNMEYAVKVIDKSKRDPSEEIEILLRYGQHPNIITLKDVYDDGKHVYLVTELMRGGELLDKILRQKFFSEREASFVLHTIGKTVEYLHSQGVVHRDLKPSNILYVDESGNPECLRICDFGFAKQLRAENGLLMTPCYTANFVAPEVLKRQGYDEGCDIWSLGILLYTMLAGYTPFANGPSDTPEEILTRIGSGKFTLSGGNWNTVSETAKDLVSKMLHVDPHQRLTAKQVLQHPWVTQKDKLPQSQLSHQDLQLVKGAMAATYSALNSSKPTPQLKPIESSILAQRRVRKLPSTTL

Usually IC50 stands for the concentration that inhibits the measured activity by half. `CCn1c(CO)nn(-c2cc(O[C@@H](C)C(F)(F)F)c(/C(F)=C/c3ncccc3Cl)cc2F)c1=O` [Compound 5] came in with a half-inhibitory concentration (IC50) in [1] of 800 pM. The remaining activity at 1 µM in [2] worked out at 94%; in assay [3], 88%; in assay [4], 91%; in assay [5], 72%; in assay [6], 95%; in assay [7], 84%. Further, the remaining activity at 1 µM in assay [8] stood at 121%; in assay [9], 126%; in assay [10], 81%; in assay [11] it was 90%; in assay [12] it was 108%; in assay [13], 111%. In addition, the figures for the remaining activity at 1 µM in assay [14], in assay [15] and in assay [16] were 96%, 88% and 84%, respectively.

These data come from patent publication US12606540B2, “Triazolone compound” (MEDSHINE DISCOVERY INC., priority 2020, dated 2026).
